Patent US11046686B2, “Thiadiazole IRAK4 compounds” (Gilead Sciences, Inc., priority 2018, dated 2021)
Where two headings read alike, the source gives them in different places.

Experiments:
TNFα = assay: IRAK4 Monocyte TNFα Cell Based Assay; parameters: species or system human
Outline: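 Human monocytes (5,000/well) pretreated with compound 1 h at 37 °C (0.1% DMSO final), then stimulated with 50 pg/ml LPS for 4 h. Secreted TNFα measured by TR-FRET two-antibody detection after overnight incubation at room temperature; % control relative to unstimulated and LPS-stimulated wells.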

IRAK4 enzyme = IRAK4 enzyme (Homo sapiens (Human), UniProt Q9NWZ3); assay: IRAK4 Biochemical Assay (TR-FRET, STK1 KinEASE)
Outline: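 IRAK4 (0.75 nM) preincubated 15 min with compound and […] STK1 peptide, then started with 500 μM ATP in HEPES pH 7.0 buffer with MgCl2, DTT, BSA, NP-40; 120 min at room temperature.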

[1] = Homo sapiens, Monocyte, human monocytes, second part of Table 2, compounds 33-343, unit inferred, read-out: EC50 MONO TNF HTRF
[2] = Homo sapiens, Monocyte, read-out: EC50 MONO TNF HTRF
[3] = Homo sapiens, Monocyte, human monocytes, LPS stimulated, compounds 1-32, read-out: EC50 TNF
[4] = compounds 1-32, read-out: IC50 HTRF
[5] = human monocytes, second part of Table 2, compounds 33-343, unit inferred, read-out: EC50 MONO TNF HTRF
[6] = second part of Table 2, compounds 33-343, unit inferred, read-out: IC50 IRAK4-HTBS

Chain of IRAK4 enzyme (Q9NWZ3 whole entry): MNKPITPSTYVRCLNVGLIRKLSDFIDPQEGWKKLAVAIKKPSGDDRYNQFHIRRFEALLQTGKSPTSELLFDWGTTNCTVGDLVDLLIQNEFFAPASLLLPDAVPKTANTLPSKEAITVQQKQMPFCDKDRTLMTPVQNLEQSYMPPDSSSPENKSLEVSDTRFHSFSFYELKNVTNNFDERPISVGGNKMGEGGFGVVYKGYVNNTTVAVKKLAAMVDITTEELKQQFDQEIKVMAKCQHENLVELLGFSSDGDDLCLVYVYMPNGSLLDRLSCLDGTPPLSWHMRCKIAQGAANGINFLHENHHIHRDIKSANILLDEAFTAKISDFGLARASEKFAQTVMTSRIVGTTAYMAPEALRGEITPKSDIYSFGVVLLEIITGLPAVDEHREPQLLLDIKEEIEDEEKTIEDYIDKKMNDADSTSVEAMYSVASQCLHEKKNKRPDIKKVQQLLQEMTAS

Row | SMILES | EC50 (TNFα; [1]) [nM] | IC50 (IRAK4 enzyme) [nM] | other results
1 | CC(=O)NC1CCN(c2nnc(-c3cnc(-c4ccc5cc(C#N)cnn45)cc3NC(C)C)s2)[C@@H](C)C1 (stereo partly drawn) [Compound 249, N-((2S)-1-(5-(6-(3-cyanopyrrolo[1,2-b]pyridazin-7-yl)-4-(isopropylamino)pyridin-3-yl)-1,3,4-thiadiazol-2-yl)-2-methylpiperidin-4-yl)acetamide] | 8.9 | 0.91 | 
2 | CC(=O)N[C@H]1CCCN(C(=O)c2nnc(-c3cnc(-c4ccc5cc(C#N)cnn45)cc3NC(C)C)s2)C1 [Example 48, (S)-N-(1-(5-(6-(3-cyanopyrrolo[1,2-b]pyridazin-7-yl)-4-(isopropylamino)pyridin-3-yl)-1,3,4-thiadiazole-2-carbonyl)piperidin-3-yl)acetamide] | 37.5 | 1.91 | 
3 | N#Cc1cnn2c(-c3cc(NC4CCOCC4)c(-c4nnc(N5CC6CC(C5)O6)s4)cn3)ccc2c1 [Example 177, 7-(5-(5-(6-oxa-3-azabicyclo[3.1.1]heptan-3-yl)-1,3,4-thiadiazol-2-yl)-4-((tetrahydro-2H-pyran-4-yl)amino)pyridin-2-yl)pyrrolo[1,2-b]pyridazine-3-carbonitrile] |  | 0.41 | EC50 (TNFα; [2]): 8.3 nM
4 | CC(C)Nc1cc(-c2ccc3cc(C#N)cnn23)ncc1-c1nnc(C(=O)N2CC[C@H](O)C2)s1 [Example 16, (S)-7-(5-(5-(3-hydroxypyrrolidine-1-carbonyl)-1,3,4-thiadiazol-2-yl)-4-(isopropylamino)pyridin-2-yl)pyrrolo[1,2-b]pyridazine-3-carbonitrile] |  |  | EC50 (TNFα; [3]): 35 nM; IC50 (IRAK4 enzyme; [4]): < 1 nM
5 | C[C@H](C#N)Nc1cc(-c2ccc3cc(C#N)cnn23)ncc1-c1nnc(N2CC3CC(C2)O3)s1 [Example 178, 7-(5-(5-(6-oxa-3-azabicyclo[3.1.1]heptan-3-yl)-1,3,4-thiadiazol-2-yl)-4-(((R)-1-cyanoethyl)amino)pyridin-2-yl)pyrrolo[1,2-b]pyridazine-3-carbonitrile] |  | 0.45 | EC50 (TNFα; [2]): 4.9 nM
6 | CC(C)Nc1cc(-c2ccc3cc(C#N)cnn23)ncc1-c1nnc(N2CC3CCC(C3)C2)s1 [Example 291, 7-(5-(5-(3-azabicyclo[3.2.1]octan-3-yl)-1,3,4-thiadiazol-2-yl)-4-(isopropylamino)pyridin-2-yl)pyrrolo[1,2-b]pyridazine-3-carbonitrile] | 59.3 | 1.78 | 
7 | Cc1nnc(-c2cnc(-c3ccc4cc(C#N)cnn34)cc2NC(C)C)s1 [Example 25, 7-(4-(isopropylamino)-5-(5-methyl-1,3,4-thiadiazol-2-yl)pyridin-2-yl)pyrrolo[1,2-b]pyridazine-3-carbonitrile] |  |  | EC50 (TNFα; [3]): 1460 nM; IC50 (IRAK4 enzyme; [4]): < 1 nM
8 | CC(C)Nc1cc(-c2ccc3cc(C#N)cnn23)ncc1-c1nnc(CCN)s1 [Example 26, 7-(5-(5-(2-aminoethyl)-1,3,4-thiadiazol-2-yl)-4-(isopropylamino)pyridin-2-yl)pyrrolo[1,2-b]pyridazine-3-carbonitrile] |  |  | EC50 (TNFα; [3]): 305 nM; IC50 (IRAK4 enzyme; [4]): 1 nM
9 | CC(C)Nc1cc(-c2ccc3cc(C#N)cnn23)ncc1-c1nnc(N2CC3CCC(C2)O3)s1 [Compound 235, 7-(5-(5-(8-oxa-3-azabicyclo[3.2.1]octan-3-yl)-1,3,4-thiadiazol-2-yl)-4-(isopropylamino)pyridin-2-yl)pyrrolo[1,2-b]pyridazine-3-carbonitrile] | 4.4 | 0.48 | 
10 | CC(C)Nc1cc(-c2ccc3cc(C#N)cnn23)ncc1-c1nnc(N2CCOCC2)s1 [Example 131, 7-(4-(isopropylamino)-5-(5-morpholino-1,3,4-thiadiazol-2-yl)pyridin-2-yl)pyrrolo[1,2-b]pyridazine-3-carbonitrile] | 14.3 | 0.53 | 
11 | CC(=O)N[C@@H]1CCN(C(=O)c2nnc(-c3cnc(-c4ccc5cc(C#N)cnn45)cc3NC(C)C)s2)C1 [Example 13, (R)-N-(1-(5-(6-(3-cyanopyrrolo[1,2-b]pyridazin-7-yl)-4-(isopropylamino)pyridin-3-yl)-1,3,4-thiadiazole-2-carbonyl)pyrrolidin-3-yl)acetamide] |  |  | EC50 (TNFα; [3]): 23 nM; IC50 (IRAK4 enzyme; [4]): < 1 nM
12 | CC(=O)N[C@H]1CCN(c2nnc(-c3cnc(-c4ccc5cc(C#N)cnn45)cc3NC3(C)COC3)s2)CC1(F)F (single isomer, unassigned; isomer 2) [147 Isomer 2] |  |  | EC50 (TNFα; [5]): 24.2 nM; IC50 (IRAK4 enzyme; [6]): 0.62 nM
13 | CNc1cc(-c2ccc3cc(C#N)cnn23)ncc1-c1nnc(N2CC[C@@H](NC(C)=O)C(F)(F)C2)s1 [Example 306, (R)-N-(1-(5-(6-(3-cyanopyrrolo[1,2-b]pyridazin-7-yl)-4-(methylamino)pyridin-3-yl)-1,3,4-thiadiazol-2-yl)-3,3-difluoropiperidin-4-yl)acetamide] | 18.4 | 1.21 | 
14 | CC(C)Nc1cc(-c2ccc3cc(C#N)cnn23)ncc1-c1nnc(CCN)s1 [Example 212, 7-(5-(5-(2-aminoethyl)-1,3,4-thiadiazol-2-yl)-4-(isopropylamino)pyridin-2-yl)pyrrolo[1,2-b]pyridazine-3-carbonitrile] | 305 |  | IC50 (IRAK4 enzyme; [6]): 1.01 nM
15 | CC(=O)N[C@H]1CC[C@H](c2nnc(-c3cnc(-c4ccc5cc(C#N)cnn45)cc3N[C@H]3CC[C@@H](O)CC3)s2)CC1 [Compound 244, N-((1R,4r)-4-(5-(6-(3-cyanopyrrolo[1,2-b]pyridazin-7-yl)-4-(((1s,4S)-4-hydroxycyclohexyl)amino)pyridin-3-yl)-1,3,4-thiadiazol-2-yl)cyclohexyl)acetamide] |  |  | EC50 (TNFα; [5]): 9.1 nM; IC50 (IRAK4 enzyme; [6]): 0.93 nM
16 | CC(C)Nc1cc(-c2ccc3cc(C#N)cnn23)ncc1-c1nnc(N2CC3CC(C2)N3C(=O)OC(C)(C)C)s1 [Compound 271, tert-butyl 3-(5-(6-(3-cyanopyrrolo[1,2-b]pyridazin-7-yl)-4-(isopropylamino)pyridin-3-yl)-1,3,4-thiadiazol-2-yl)-3,6-diazabicyclo[3.1.1]heptane-6-carboxylate] |  | 3.22 | EC50 (TNFα; [2]): 89 nM
17 | CC(C)Nc1cc(-c2ccc3cc(C#N)cnn23)ncc1-c1nnc(N2CC3(CCO3)C2)s1 [Example 293, 7-(5-(5-(1-oxa-6-azaspiro[3.3]heptan-6-yl)-1,3,4-thiadiazol-2-yl)-4-(isopropylamino)pyridin-2-yl)pyrrolo[1,2-b]pyridazine-3-carbonitrile] | 365 | 1.52 | 
18 | CNC(=O)C1CCN(c2nnc(-c3cnc(-c4ccc5cc(C#N)cnn45)cc3NC(C)C)s2)CC1 [Example 305, 1-(5-(6-(3-cyanopyrrolo[1,2-b]pyridazin-7-yl)-4-(isopropylamino)pyridin-3-yl)-1,3,4-thiadiazol-2-yl)-N-methylpiperidine-4-carboxamide] | 15.9 | 1.02 | 
19 | CC(=O)NC1CC2(C1)CN(c1nnc(-c3cnc(-c4ccc5cc(C#N)cnn45)cc3NC(C)C)s1)C2 [Compound 231, N-(2-(5-(6-(3-cyanopyrrolo[1,2-b]pyridazin-7-yl)-4-(isopropylamino)pyridin-3-yl)-1,3,4-thiadiazol-2-yl)-2-azaspiro[3.3]heptan-6-yl)acetamide] | 22.2 | 1.17 | 
20 | CC1(O)CCN(c2nnc(-c3cnc(-c4ccc5cc(C#N)cnn45)cc3NC3COC3)s2)CC1 [Example 187, 7-(5-(5-(4-hydroxy-4-methylpiperidin-1-yl)-1,3,4-thiadiazol-2-yl)-4-(oxetan-3-ylamino)pyridin-2-yl)pyrrolo[1,2-b]pyridazine-3-carbonitrile] | 10.8 | 0.66 | 
21 | CC(C)Nc1cc(-c2ccc3cc(C#N)cnn23)ncc1-c1nnc(N2C[C@H]3CC[C@@H](C2)[C@@H]3NC(=O)[C@H](C)O)s1 [Example 91, (S)-N-((1R,5S,8s)-3-(5-(6-(3-cyanopyrrolo[1,2-b]pyridazin-7-yl)-4-(isopropylamino)pyridin-3-yl)-1,3,4-thiadiazol-2-yl)-3-azabicyclo[3.2.1]octan-8-yl)-2-hydroxypropanamide] |  |  | EC50 (TNFα; [5]): 3.9 nM; IC50 (IRAK4 enzyme; [6]): 0.93 nM
22 | CC(C)Nc1cc(-c2ccc3cc(C#N)cnn23)ncc1-c1nnc(C(=O)N2CC[C@@H](O)C2)s1 [Example 17, (R)-7-(5-(5-(3-hydroxypyrrolidine-1-carbonyl)-1,3,4-thiadiazol-2-yl)-4-(isopropylamino)pyridin-2-yl)pyrrolo[1,2-b]pyridazine-3-carbonitrile] |  |  | EC50 (TNFα; [3]): 55 nM; IC50 (IRAK4 enzyme; [4]): 1 nM
23 | CC(C)Nc1cc(-c2ccc3cc(C#N)cnn23)ncc1-c1nnc(CCNC(=O)OC(C)(C)C)s1 [Example 1, tert-butyl (2-(5-(6-(3-cyanopyrrolo[1,2-b]pyridazin-7-yl)-4-(isopropylamino)pyridin-3-yl)-1,3,4-thiadiazol-2-yl)ethyl)carbamate] |  |  | EC50 (TNFα; [3]): 309 nM; IC50 (IRAK4 enzyme; [4]): 1.5 nM
24 | CC(=O)N[C@H]1CC[C@H](c2nnc(-c3cnc(-c4ccc5cnc(N[C@@H]6CCCC[C@@H]6N)nn45)cc3NC(C)C)s2)CC1 [Example 50, N-((1r,4r)-4-(5-(6-(2-(((1R,2S)-2-aminocyclohexyl)amino)pyrrolo[2,1-f][1,2,4]triazin-7-yl)-4-(isopropylamino)pyridin-3-yl)-1,3,4-thiadiazol-2-yl)cyclohexyl)acetamide] | 3.6 | 0.92 | 
25 | CC(C)(O)[C@@H]1C[C@H]1c1nnc(-c2cnc(-c3ccc4cc(C#N)cnn34)cc2NC2COC2)s1 (single isomer, unassigned; isomer 2) [136 Isomer 2] |  |  | EC50 (TNFα; [5]): 4 nM; IC50 (IRAK4 enzyme; [6]): 0.53 nM
